Active and inactive are the calls of the source.
How the values were obtained:
[1] = P. falciparum Dd2 growth inhibitors, dose response, SYBR Green, cherry-picked samples (AID 1159567); assay type: functional, cell-based
[2] = biological target: T1, Fatty acid synthase (Homo sapiens, UniProt P49327); assay: FAS thioesterase domain inhibitors, dose response, biochemical, endpoint fluorescence intensity, uHTS hits (AID 624327); assay type: functional;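 note: fluorescence from hydrolysis of an O-methyl fluorescein acyl ester substrate by the enzyme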
T1 sequence (P49327 whole entry, the tested form may be a part): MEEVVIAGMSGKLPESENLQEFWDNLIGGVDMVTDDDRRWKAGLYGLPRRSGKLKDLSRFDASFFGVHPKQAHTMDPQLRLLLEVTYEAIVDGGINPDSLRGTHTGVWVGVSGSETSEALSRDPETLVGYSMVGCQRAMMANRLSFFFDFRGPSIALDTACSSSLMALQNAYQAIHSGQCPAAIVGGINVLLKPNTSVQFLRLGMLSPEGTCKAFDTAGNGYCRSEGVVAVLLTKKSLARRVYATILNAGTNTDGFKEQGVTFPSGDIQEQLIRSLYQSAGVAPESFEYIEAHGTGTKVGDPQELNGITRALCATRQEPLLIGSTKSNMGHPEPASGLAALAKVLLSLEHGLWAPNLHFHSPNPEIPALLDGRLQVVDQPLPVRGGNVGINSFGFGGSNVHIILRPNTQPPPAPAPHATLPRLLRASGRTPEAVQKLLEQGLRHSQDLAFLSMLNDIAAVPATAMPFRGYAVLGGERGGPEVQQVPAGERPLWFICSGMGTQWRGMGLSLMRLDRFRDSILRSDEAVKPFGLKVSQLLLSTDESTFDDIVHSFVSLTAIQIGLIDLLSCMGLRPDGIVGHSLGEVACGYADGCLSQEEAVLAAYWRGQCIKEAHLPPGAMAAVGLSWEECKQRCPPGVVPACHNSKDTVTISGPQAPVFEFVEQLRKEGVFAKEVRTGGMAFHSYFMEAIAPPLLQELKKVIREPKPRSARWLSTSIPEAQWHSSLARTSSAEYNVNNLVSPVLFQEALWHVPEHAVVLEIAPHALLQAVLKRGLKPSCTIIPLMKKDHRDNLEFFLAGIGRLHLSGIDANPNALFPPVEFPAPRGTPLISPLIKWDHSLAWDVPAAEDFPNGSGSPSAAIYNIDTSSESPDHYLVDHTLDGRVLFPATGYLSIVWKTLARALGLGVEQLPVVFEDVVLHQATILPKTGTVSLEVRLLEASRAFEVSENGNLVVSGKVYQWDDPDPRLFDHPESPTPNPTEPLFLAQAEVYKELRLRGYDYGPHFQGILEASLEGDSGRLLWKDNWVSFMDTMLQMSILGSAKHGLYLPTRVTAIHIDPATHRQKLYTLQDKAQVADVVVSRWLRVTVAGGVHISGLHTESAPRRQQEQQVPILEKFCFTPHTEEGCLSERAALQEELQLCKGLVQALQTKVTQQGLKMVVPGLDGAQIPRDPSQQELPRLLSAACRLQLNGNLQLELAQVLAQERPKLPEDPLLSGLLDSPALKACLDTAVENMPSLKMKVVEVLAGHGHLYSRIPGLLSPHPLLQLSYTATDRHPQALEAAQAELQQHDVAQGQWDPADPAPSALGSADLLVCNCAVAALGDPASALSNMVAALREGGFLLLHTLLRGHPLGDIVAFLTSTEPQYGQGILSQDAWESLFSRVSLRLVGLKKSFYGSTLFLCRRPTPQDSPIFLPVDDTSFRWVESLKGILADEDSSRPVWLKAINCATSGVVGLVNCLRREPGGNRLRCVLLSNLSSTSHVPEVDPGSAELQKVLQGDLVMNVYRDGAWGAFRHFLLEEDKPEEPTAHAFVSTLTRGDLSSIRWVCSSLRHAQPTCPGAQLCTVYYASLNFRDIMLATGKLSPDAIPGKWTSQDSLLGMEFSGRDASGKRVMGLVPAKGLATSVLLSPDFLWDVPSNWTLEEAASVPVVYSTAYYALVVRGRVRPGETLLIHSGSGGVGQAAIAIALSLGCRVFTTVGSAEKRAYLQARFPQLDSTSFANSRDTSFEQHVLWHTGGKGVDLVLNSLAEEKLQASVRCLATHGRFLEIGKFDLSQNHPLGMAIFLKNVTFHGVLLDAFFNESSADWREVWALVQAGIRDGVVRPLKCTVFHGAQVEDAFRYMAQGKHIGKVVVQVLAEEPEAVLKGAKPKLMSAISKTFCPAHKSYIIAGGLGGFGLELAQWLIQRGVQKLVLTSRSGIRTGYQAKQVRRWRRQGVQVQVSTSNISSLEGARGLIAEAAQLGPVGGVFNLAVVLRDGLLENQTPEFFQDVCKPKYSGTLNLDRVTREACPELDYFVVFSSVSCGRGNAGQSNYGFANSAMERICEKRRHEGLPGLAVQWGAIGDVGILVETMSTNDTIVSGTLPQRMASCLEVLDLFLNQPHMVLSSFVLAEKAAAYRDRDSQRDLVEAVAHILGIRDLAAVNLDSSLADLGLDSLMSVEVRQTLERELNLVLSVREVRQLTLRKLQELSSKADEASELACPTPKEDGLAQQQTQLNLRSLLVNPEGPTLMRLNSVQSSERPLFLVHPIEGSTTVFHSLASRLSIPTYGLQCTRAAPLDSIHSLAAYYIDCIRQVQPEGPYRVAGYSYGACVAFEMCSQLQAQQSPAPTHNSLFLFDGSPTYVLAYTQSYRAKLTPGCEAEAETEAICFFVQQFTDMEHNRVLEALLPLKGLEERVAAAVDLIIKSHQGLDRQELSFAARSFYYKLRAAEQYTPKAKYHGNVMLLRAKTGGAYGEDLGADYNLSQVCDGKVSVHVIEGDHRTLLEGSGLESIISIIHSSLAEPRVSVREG

[3] = biological target: T1, Fatty acid synthase; assay: FAS thioesterase domain inhibitors, dose response, biochemical, kinetic fluorescence intensity (AID 624326); assay type: functional;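 note: rate of fluorescence rise from hydrolysis of a fluorogenic O-methyl fluorescein ester substrate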
[4] = biological target: Heat shock protein HSP 90-alpha (Homo sapiens, UniProt P07900); assay type: functional, organism-based
[5] = tested on: Streptococcus; assay: Group A Streptococcus viability loss, dose response, counter-screen for streptokinase expression inhibitor project, luminescence, BacTiterGlo (AID 1915); assay type: functional, organism-based;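 note: potency for reduction of bacterial viability or growth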
[6] = tested on: Streptococcus sp. 'group A'; assay: growth inhibition of control SK(-) GAS strain, dose response, counter-screen for streptokinase expression inhibitor project, luminescence, kanamycin, BacTiterGlo, confirmation (AID 1900); assay type: functional, organism-based
[7] = biological target: T2, Replicative DNA helicase DnaB (Mycobacterium tuberculosis, UniProt P9WMR3); assay: DnaB intein splicing inhibitors, dose response, biochemical, cell-free fluorescence (AID 449749); assay type: functional
T2 sequence (P9WMR3 whole entry): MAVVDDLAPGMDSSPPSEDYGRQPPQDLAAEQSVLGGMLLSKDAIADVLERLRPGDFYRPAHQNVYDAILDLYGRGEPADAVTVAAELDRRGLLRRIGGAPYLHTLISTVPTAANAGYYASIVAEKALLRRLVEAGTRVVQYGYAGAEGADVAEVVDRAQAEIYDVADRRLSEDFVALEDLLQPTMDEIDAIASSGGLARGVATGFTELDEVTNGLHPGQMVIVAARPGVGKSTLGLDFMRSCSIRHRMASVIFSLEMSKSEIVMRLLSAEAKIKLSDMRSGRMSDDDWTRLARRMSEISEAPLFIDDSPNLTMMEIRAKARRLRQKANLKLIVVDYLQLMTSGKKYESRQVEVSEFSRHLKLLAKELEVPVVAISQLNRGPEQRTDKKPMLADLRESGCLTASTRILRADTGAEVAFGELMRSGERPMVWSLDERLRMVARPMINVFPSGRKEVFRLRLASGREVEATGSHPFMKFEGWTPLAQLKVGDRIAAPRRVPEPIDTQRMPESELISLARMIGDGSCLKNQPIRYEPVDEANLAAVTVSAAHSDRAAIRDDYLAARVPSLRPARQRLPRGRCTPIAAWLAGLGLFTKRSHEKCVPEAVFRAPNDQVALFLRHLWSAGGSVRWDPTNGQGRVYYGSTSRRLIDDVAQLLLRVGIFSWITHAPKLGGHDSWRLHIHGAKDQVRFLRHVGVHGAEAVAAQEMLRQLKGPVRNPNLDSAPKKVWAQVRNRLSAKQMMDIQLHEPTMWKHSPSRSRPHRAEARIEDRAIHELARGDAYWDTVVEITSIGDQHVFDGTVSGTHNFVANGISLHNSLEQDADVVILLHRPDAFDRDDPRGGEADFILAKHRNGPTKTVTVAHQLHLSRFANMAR

[8] = tested on: INS1; assay: beta cell apoptosis inhibitors, cytokine rescue, dose response, luminescence, retest (AID 449756); assay type: functional, cell-based; details: Rattus norvegicus;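 note: cell death triggered by IL-1 beta plus TNF-alpha plus IFN-gamma mixture; protective hits raise ATP signal compared with cytokine alone wells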
[9] = inhibitors of SNCA 5'UTR-driven reporter translation, confirmation, H4 neuroglioma cells, luminescence (AID 1988); assay type: functional, cell-based
[10] = Luminescence Cell-Based Dose Response HTS to Identify Inhibitors of 5'UTR Stem-Loop Driven Prion Protein mRNA Translation in H4 Neuroglioblastoma Cells. [Related pubchem assays: 1827 (Project Summary), 1813 (Primary HTS)]; assay type: functional
[11] = biological target: T3, Protein RecA (Mycobacterium tuberculosis, UniProt P9WHJ3); assay: Fluorescence Cell-Free Homogeneous Dose Retest to Identify Inhibitors of RecA-Intein Splicing Activity. [Related pubchem assays (depositor defined):AID2097, AID2223, AID489010, AID492950]; assay type: functional
T3 sequence (P9WHJ3 whole entry): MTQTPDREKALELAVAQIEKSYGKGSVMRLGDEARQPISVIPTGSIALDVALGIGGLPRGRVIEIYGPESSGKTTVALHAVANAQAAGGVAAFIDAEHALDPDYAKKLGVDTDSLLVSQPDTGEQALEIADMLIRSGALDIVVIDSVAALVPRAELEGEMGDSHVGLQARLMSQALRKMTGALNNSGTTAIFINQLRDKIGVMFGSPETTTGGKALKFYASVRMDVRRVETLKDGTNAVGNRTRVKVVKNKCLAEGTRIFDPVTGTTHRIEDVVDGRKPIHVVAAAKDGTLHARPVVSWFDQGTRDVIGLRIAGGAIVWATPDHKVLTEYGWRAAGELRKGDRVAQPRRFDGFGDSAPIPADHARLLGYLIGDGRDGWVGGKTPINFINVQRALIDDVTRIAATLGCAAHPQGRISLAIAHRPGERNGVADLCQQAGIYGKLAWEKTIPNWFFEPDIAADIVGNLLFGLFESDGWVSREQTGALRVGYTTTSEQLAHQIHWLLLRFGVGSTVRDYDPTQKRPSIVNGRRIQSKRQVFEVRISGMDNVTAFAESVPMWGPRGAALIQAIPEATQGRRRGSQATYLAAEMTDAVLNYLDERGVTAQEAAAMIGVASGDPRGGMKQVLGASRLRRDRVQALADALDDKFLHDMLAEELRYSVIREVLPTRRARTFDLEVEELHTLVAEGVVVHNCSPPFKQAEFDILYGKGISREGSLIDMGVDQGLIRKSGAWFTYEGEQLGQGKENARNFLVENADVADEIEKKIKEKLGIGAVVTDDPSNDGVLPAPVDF

[12] = inhibitors of firefly luciferase expression or activity, dose response, H4 neuroglioma cells, luminescence (AID 1990); assay type: functional, cell-based
[13] = biological target: T4, Streptokinase A (Streptococcus pyogenes serotype M1, UniProt P10520); assay: S. pyogenes streptokinase expression inhibitors, potency, dose response, plasminogen activation absorbance, OD405 (AID 1914); assay type: functional, Streptococcus pyogenes M1 GAS;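 note: secreted streptokinase activity via plasminogen activation per viability signal from cell pellet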
T4 sequence (P10520 whole entry): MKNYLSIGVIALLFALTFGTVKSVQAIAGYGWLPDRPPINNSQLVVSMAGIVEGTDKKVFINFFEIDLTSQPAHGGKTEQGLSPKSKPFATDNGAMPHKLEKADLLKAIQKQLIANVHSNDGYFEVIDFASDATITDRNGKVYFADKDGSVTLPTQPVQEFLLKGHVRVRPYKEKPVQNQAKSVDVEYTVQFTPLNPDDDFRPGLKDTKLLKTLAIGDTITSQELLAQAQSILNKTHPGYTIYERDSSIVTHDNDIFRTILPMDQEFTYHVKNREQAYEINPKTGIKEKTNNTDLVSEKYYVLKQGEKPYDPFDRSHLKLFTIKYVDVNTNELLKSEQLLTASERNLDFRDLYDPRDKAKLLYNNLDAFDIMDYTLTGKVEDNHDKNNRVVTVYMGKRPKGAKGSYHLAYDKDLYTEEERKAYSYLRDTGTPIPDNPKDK

[14] = growth suppression of beta-catenin-knockout colon cells, dose response, cell-based, HCT116, human colon tumor (AID 1045); assay type: functional;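 note: HCT116 colon tumor cells with beta catenin knocked out; cells exposed to compound for 60 hours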
[15] = growth suppression of PTEN-null colon cells, dose response, cell-based, HCT116 PTEN knockout (AID 1047); assay type: functional;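 note: HCT116 colon tumor cells with PTEN knocked out; cells exposed to compound for 60 hours before readout; potency for loss of cell viability measured by luminescence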
[16] = biological target: Cytochrome P450 2C9 (Homo sapiens, UniProt P11712)
Chain of Cytochrome P450 2C9 (P11712 whole entry): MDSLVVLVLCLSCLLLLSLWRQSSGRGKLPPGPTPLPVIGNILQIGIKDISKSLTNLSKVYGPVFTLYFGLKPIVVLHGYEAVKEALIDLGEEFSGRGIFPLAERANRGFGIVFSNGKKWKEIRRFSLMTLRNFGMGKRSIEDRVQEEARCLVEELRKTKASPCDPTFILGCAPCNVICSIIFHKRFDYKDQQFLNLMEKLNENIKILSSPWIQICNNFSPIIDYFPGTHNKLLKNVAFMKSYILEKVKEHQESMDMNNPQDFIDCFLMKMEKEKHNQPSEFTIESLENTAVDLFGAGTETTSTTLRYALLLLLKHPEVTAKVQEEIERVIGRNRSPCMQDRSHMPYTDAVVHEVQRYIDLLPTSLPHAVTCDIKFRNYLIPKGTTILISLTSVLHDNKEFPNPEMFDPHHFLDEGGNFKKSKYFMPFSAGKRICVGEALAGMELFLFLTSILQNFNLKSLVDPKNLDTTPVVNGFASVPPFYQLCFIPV

[17] = biological target: T5, Cytochrome P450 1A2 (Homo sapiens, UniProt P05177);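 note: PubChem cytochrome P450 panel assay, CYP1A2 panel member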
T5 sequence (P05177 whole entry): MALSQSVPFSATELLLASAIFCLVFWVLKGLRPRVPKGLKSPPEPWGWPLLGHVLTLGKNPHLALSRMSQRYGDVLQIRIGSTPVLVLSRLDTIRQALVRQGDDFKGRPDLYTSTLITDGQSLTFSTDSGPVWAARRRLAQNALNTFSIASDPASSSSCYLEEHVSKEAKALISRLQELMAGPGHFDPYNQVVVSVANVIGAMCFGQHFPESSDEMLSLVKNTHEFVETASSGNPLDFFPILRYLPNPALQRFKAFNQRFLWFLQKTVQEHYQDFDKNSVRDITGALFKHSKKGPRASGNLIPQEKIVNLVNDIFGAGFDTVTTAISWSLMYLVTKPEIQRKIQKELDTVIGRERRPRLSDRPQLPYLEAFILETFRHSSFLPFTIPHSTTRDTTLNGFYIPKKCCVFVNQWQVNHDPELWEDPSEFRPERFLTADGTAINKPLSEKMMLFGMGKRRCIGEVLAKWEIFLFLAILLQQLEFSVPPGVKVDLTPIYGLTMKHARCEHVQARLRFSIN

For COc1ccc2c3c([nH]c2c1)[C@@H](CO)N(Cc1nccs1)CC31CCN(Cc2nccs2)CC1, the AC50 [1] was 4.94 µM (active).
With O=C1C=CC(=O)C2C1C1(Cl)C(Cl)=C(Cl)C2(Cl)C1(Cl)Cl (configuration not stated) the IC50 [2] was 14.8 µM (active), the IC50 [3] was 13.8 µM (active) and the AC50 [4] was 7.83 µM (active).
For O=Nc1c(O)c2ccccc2c2ccccc12, the EC50 [5] was 10.8 µM (active), the EC50 [6] was 1.68 µM (active) and the AC50 [7] was 4.39 µM (active). The AC50 [8] was 7.86 µM (active), the EC50 [9] was > 120 µM (not active) and the EC50 [10] was > 120 µM (not active). For the same compound, the AC50 [4] was 1.03 µM (active), the EC50 [11] was 5.3 µM (active) and the EC50 [12] was 8.1 µM (active). The EC50 [13] was 7.11 µM (active).
In the case of O=C(CCC(=O)CCN1CCCCC1)CCN1CCCCC1, the EC50 [14] is reported as 32.6 µM (active) and the EC50 [15] is reported as 33.1 µM (active).
With COc1cc2c(cc1OC)C(=O)N1[C@H]3c4ccccc4OC[C@@H]3[C@H](c3ccccc3)[C@]1(C)C(=O)N2 the AC50 [4] was 9.07 µM (active).
With CCOc1ccccc1NC(=O)C1Cc2ccccc2CN1S(C)(=O)=O (configuration not stated) the AC50 [16] was “inconclusive” and the AC50 [17] was 39.8 µM (inconclusive).
For C/C=C/c1ccc2n(c1=O)C[C@@H]1[C@@H](CO)[C@H](C(=O)N3CCC(Cc4ccccc4)CC3)N(CCC)[C@H]21.C/C=C\c1ccc2n(c1=O)C[C@@H]1[C@@H](CO)[C@H](C(=O)N3CCC(Cc4ccccc4)CC3)N(CCC)[C@H]21, the AC50 [1] was 4.32 µM (active).
With COc1cccc(-c2nc(Oc3cc(C)cc(C)c3)c3ccccc3n2)c1O the EC50 [14] was 13.7 µM (active) and the EC50 [15] was 8.12 µM (active).
